Measured values from patent US8093396B2, “Benzthiazole inhibitors of poly(ADP-ribose)polymerase” (Abbott Laboratories, priority 2009, dated 2012).

Target: PARP-1 (Homo sapiens, UniProt P09874)
Test: Inhibition of PARP by Compounds Having Formula I
Type: biochemical

Chain of PARP-1 (P09874 whole entry, species assumed): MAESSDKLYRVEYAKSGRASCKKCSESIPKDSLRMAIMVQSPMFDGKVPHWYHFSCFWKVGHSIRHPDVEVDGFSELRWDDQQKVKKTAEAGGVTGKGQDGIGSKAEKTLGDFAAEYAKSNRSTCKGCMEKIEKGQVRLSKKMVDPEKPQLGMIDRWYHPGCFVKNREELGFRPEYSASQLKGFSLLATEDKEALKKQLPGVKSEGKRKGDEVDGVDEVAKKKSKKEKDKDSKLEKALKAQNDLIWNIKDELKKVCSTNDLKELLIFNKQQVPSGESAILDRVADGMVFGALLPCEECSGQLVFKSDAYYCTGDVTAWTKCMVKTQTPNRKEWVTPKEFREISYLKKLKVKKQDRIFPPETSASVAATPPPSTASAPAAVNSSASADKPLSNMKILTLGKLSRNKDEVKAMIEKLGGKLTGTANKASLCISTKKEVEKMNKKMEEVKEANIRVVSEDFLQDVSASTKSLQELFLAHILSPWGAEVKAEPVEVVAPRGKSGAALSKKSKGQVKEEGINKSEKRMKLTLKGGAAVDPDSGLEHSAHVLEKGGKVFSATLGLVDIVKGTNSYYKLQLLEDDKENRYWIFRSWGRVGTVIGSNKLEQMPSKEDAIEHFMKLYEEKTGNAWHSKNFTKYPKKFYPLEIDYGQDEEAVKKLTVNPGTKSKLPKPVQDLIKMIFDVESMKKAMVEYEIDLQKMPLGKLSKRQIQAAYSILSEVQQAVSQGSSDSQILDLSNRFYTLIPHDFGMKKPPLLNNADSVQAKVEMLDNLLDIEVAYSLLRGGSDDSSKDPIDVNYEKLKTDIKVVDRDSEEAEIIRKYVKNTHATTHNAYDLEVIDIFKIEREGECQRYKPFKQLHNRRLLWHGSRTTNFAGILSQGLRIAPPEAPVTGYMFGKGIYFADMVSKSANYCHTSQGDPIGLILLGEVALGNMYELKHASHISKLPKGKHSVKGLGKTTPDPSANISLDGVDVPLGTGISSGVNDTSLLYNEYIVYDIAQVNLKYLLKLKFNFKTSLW

First: NC(=O)c1cccc2sc(-c3ccc(OS(=O)(=O)C(F)(F)F)cc3)nc12 [Example 1, 4-[4-(aminocarbonyl)-1,3-benzothiazol-2-yl]phenyl trifluoromethanesulfonate]
Second: NC(=O)c1cccc2sc(-c3ccc(-c4ccccc4)cc3)nc12 [Example 2, 2-(1,1′-biphenyl-4-yl)-1,3-benzothiazole-4-carboxamide]
The Ki of the first is 7-fold lower: 45 nM for the first, 316 nM for the second. The first binds more tightly here.

First: NC(=O)c1cccc2sc(-c3ccc(-c4cccnc4)cc3)nc12 [Example 3, 2-(4-pyridin-3-ylphenyl)-1,3-benzothiazole-4-carboxamide]
Second: NC(=O)c1cccc2sc(-c3ccc(-c4ccncc4)cc3)nc12 [Example 4, 2-(4-pyridin-4-ylphenyl)-1,3-benzothiazole-4-carboxamide]
The Ki of the first is 2.7-fold lower: 9.5 nM for the first, 26 nM for the second.
